# Assay results as given in US8822535B2 (priority 2005, dated 2014).
# Several values for one entry are separate records, joined by “and”; a condition that tells them apart may be missing. Equal entries are not always repeated. Where two headings read alike, the source gives them in different places.
# Tests used:
# mice [1] = format: in vivo, mouse (C57Bl/6)
# Drosophila melanogaster = assay: Anoxia tolerance of Drosophila melanogaster after CO2 / H2S treatment; format: in vivo; conditions: adult flies
# Method: Adult flies were introduced into 35 mL tubes made of glass with a gas-tight rubber stopper (Balsh tubes). This was usually accomplished by anesthetizing flies with CO2, moving groups of flies to vials with food to recover for at least 2 hours, and then transferring them into the Balsh tube. To exchange the gaseous environment in the Balsh tube, two 18 gauge needles were inserted into the rubber stopper, and gas is blown into one of the needles at 100 mL/min. To prevent dessication, gasses were humidified by bubbling through 10 mL of water before passing it through the Balsch tube. The water in the bubbler is equilibrated with the gas for at least 20 minutes before starting the experiment.
# For “stopped-flow” experiments, gas exchange proceeded for 60 minutes before sealing the tube. For “low-flow” experiments, gas flow continued throughout the experiment. CO2 was from the house source (100%), and anoxic environments were established by flushing out room air with 100% nitrogen (N2). Care was taken to prevent introduction of room air into the system while switching the atmosphere from CO2 to N2.
# After anoxic treatment, oxygen was reintroduced into the Balsh tube by flushing with house air for 20 minutes. The rubber stopper was then removed and a food vial is inverted over the top of the Balsh tubes with Parafilm. […] Viability was scored at least 18 hours after the end of anoxic treatment. After two weeks, if the food vials contained larvae and/or pupae the flies were considered to be fertile.
# rats = format: in vivo, rat
# Method: After surgical implantation of catheters and recovery, blood was removed from conscious animals in 40 minutes. […] Three hours after the end of the bleed, surviving animals were given one shed-blood volume of lactated ringers solution intravenously.
# mice [2] = assay: Gas matrix: metabolic flexibility in altered gas environments, mice; format: in vivo, mouse; conditions: 0.01% in room air, ambient 7 to 10° C., 6-hour treatment
# Method: Metabolic flexibility was evaluated in mice rats and dogs using altered gas environments. Three parameters were used to define this reduction in metabolism including changes in carbon dioxide production, oxygen consumption measured by respirometry, and core temperature as measured using telemetry. In experiments with mice and rats the animals were placed into sealed chambers with one gas import and one gas export. For dogs a mask was placed over the snout of the animal with two hoses (import and export) attached to the mask. The flow rate of gas for each of the animals mice—500 cc per minute, rats—2 liters per minute, and dogs 40 liters per minute. Each atmosphere was constructed from compressed gas by dilution into room air unless otherwise noted. For rat and mouse experiments the ambient temperature was 7 to 10° C. during exposure to the test gases. For dogs ambient temperature was room temperature (22° C.).
# Evidence of depression in metabolic rate of greater than 5-fold as judged by carbon dioxide production or oxygen consumption during a 6-hour treatment is described by “Yes”; […]; “N/D” denotes experiments not done. The temperature drop in the dog experiment (Carbon dioxide+low oxygen+Helium) was approximately 1.5° C. over the course of 30 minutes of exposure. This drop in temperature was considered significant because the dog was 12 kg and no such temperature drop was seen during extensive baseline recording of the animal in room air.
smiles,measurement,setting,value
"S [H2S, hydrogen sulfide]",drop in CO2 production during hypoxia from pre-exposure level,"mice [1]; 150 ppm H2S 20 minutes, then 5% O2 for several hours (FIG. 25)",approximately 50 fold
same,CO2 output,"mice [1]; 150 ppm H2S 20 minutes, then several hours of 5% O2, pre-exposure approximately 2500 ppm",approximately 50 ppm
same,survival time at lethal oxygen tensions,mice [1]; 150 ppm H2S prior to oxygen tension reduced to between 5% and 2.5% (FIG. 24),at least 60 minutes
same,reduction in CO2 evolution,"mice [1]; pre-treatment with H2S, new lower baseline",50-60%
same,survival,Drosophila melanogaster; 50 ppm H2S in room air prior to 18.5 h anoxia,25%
same,survival,"Drosophila melanogaster; 50 ppm H2S present in the CO2 pretreatment and removed as anoxia is established, 20 h",35%
same,survival,"Drosophila melanogaster; CO2 10 min, H2S/CO2 10 min, N2/H2S 10 min, then N2, 15 h anoxic exposure, low-flow",50%
same,rats surviving hemorrhage and 3 hour shock period,rats; 300 ppm H2S,6/7
same,Complete recovery,rats; 300 ppm H2S from 30% blood loss to end of 40 minute bleed,85.7% (6/7)
same,CO2 production (VCO2),rats; 15 minutes post bleed,17 ± 3 mL/min/kg
same,Blood CO2 content (pCO2),rats; End of bleed,35 +/− 6 mmHg
same,Blood Lactate,rats; End of bleed,6.6 ± 1 mmol/L
same,Blood base excess,rats; End of bleed,-5 ± 4 mmol/L
same,Blood bicarbonate content ([HCO3]),rats; End of bleed,21 ± 3 mmol/L
same,Blood pH,rats; End of bleed,7.41 +/− 0.02
same,CO2 production (VCO2),rats; End of bleed,16 ± 2 mL/min/kg
same,CO2 production (VCO2),rats; Mid-bleed,20 ± 2 mL/min/kg
same,Blood CO2 content (pCO2),rats; Pre-bleed,45 +/− 6 mmHg
same,Blood Lactate,rats; Pre-bleed,1.4 ± 0.5 mmol/L
same,Blood base excess,rats; Pre-bleed,8 ± 2 mmol/L
same,Blood bicarbonate content ([HCO3]),rats; Pre-bleed,32 ± 3 mmol/L
same,Blood pH,rats; Pre-bleed,7.46 +/− 0.03
same,CO2 production (VCO2),rats; Pre-bleed,25 ± 4 mL/min/kg
same,Time to death of non-survivors,"rats; after the end of the bleed, 300 ppm H2S",174 min and 174 (1/7) min
same,"depression in metabolic rate, Mouse",mice [2],Yes 0.01% (Evidence of depression in metabolic rate of greater than 5-fold as judged by carbon dioxide production or oxygen consumption during a 6-hour treatment is described by “Yes”)
